Measured values from patent US20250257098A1, “NOVEL SST4 SELECTIVE AGONISTS AS NON-OPIOID ANALGESICS” (KØBENHAVNS UNIVERSITET, priority 2022, published 2025).

Key:
[1] = system: LPS-stimulated mouse macrophages; type: cell-based, BALB/c mice
[2] = target: T1, human somatostatin receptor SST4 (Homo sapiens, UniProt P31391); type: cell-based
T1 construct: expressed in transfected cells; host or cells: HTLA cells

[3] = target: T2, human somatostatin receptor SST1 (Homo sapiens, UniProt P30872); type: cell-based
T2 construct: expressed in transfected cells; host or cells: HTLA cells

[4] = target: T3, human somatostatin receptor SST3 (Homo sapiens, UniProt P32745); type: cell-based
T3 construct: expressed in transfected cells; host or cells: HTLA cells

[5] = system: mouse model of post-surgical pain; parameters: species or system mice; details: in vivo
[6] = system: model of chronic neuropathic pain (spared nerve injury, SNI); parameters: species or system C57BL/6NRj mice; details: mouse, in vivo
[7] = target: T4, human somatostatin receptor SST5 (Homo sapiens, UniProt P35346); type: cell-based
T4 construct: expressed in transfected cells; host or cells: HTLA cells

[8] = target: T5, human somatostatin receptor SST2 (Homo sapiens, UniProt P30874); type: cell-based
T5 construct: expressed in transfected cells; host or cells: HTLA cells
T5 sequence (P30874 whole entry): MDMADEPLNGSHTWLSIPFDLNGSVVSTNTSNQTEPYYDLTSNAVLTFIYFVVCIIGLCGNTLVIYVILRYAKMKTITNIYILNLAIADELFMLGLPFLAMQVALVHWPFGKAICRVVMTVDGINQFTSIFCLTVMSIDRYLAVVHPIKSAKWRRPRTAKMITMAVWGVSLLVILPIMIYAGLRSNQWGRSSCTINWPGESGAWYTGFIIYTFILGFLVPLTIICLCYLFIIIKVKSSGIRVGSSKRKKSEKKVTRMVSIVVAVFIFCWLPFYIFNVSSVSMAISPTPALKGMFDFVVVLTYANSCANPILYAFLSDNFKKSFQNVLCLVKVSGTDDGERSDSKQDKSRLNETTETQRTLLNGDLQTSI

T1 sequence (P31391 whole entry): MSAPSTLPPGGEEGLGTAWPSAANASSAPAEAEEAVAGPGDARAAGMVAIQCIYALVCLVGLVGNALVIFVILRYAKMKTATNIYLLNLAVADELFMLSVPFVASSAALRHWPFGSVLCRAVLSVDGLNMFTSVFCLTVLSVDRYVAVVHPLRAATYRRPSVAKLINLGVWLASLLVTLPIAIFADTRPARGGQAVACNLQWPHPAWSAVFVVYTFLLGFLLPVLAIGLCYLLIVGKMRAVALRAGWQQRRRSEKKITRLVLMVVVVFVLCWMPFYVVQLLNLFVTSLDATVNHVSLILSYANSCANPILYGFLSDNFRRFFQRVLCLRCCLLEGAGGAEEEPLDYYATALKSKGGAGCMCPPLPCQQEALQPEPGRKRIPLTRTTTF
T3 sequence (P32745 whole entry): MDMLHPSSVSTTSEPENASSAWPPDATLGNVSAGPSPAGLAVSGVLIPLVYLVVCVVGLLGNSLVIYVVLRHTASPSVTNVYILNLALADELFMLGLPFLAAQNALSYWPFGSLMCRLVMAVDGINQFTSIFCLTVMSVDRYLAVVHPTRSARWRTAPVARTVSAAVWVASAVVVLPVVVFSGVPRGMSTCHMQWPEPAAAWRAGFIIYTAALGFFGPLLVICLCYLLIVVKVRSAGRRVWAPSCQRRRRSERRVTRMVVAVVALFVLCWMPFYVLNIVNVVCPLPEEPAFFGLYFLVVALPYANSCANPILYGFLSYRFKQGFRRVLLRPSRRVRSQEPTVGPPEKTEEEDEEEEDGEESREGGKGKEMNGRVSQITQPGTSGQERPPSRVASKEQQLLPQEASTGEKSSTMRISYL
T2 sequence (P30872 whole entry): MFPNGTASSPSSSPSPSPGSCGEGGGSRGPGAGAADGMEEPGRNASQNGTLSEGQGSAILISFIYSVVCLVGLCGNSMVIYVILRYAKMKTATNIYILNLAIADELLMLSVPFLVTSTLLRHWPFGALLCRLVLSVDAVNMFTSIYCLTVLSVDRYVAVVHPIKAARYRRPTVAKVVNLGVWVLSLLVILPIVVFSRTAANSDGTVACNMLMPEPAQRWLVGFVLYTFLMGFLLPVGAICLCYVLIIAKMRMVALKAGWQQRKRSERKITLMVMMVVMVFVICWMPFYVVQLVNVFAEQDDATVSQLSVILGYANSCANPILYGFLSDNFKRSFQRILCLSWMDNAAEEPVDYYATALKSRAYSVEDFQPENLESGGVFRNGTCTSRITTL
T4 sequence (P35346 whole entry): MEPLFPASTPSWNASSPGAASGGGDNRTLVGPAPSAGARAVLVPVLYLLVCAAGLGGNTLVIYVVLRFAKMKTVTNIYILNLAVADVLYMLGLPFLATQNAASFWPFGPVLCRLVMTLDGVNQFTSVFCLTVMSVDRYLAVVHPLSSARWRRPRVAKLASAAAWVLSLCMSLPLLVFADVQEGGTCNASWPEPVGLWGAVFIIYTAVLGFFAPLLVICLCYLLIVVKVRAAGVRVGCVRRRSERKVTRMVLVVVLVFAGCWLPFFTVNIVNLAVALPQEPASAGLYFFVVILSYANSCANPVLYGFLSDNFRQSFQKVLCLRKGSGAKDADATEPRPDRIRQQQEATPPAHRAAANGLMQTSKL

PVCWKFGCPL [HSH-109, PVCwKFGCOL]
reduction of MCP1 levels [1]: ~47% | reduction of TNFα levels [1]: ~62% | apparent potency at SST4 [2]: low nanomolar range | potency compared with Cont-Ro1 [2]: more potent | selectivity for SST4 compared with Cont-Ro1 [2]: more selective for SST4 than Cont-Ro1 | apparent potency at SST1 [3]: low micromolar range | activation of SST3 [4]: did not significantly activate | area under the curve larger than for Cont-Ro1 [5]: 39% | duration of effect compared with Cont-Ro1 [5]: longer lasting | duration of effect versus morphine positive control [5]: longer lasting than the morphine positive control | effect level compared with Cont-Ro1 [5]: tendency for a higher effect level of HSH-109 over Cont-Ro1 | expected efficacy [5]: expected to be fully efficacious | reduction of hypersensitivity [5]: robust reduction of hypersensitivity | reduction of mechanical hypersensitivity [6]: very robust reduction of mechanical hypersensitivity | activation of SST5 [7]: did not significantly activate | activation of SST2 [8]: did not significantly activate
